Reference: ChEMBL document CHEMBL1201862, “PubChem BioAssay data set” (2004)
Calls of active or inactive are those of the source. Cut-off read from the data, not from the text of the source, for most assays here: actives have a measured EC50 and inactives only a lower limit.

Columns and labels:
[1] = target: Luciferin 4-monooxygenase (Photinus pyralis, UniProt P08659); experiment: Counter Screen for Luciferase-based Assay Positives. [Related pubchem assays: 620, 618, 411 ]
[2] = target: NS3 (Hepatitis C virus, UniProt A3EZJ3); experiment: PubChem AID 2173; parameters: species or system Hepacivirus hominis
[3] = system: HT-1080; experiment: cytotoxicity in HT1080 fibrosarcoma cells, cell-based, fluorescence readout (AID 620); type: functional; conditions: Homo sapiens
[4] = Luminescence Cell-Based Dose Response HTS to Identify Inhibitors of 5'UTR Stem-Loop Driven Prion Protein mRNA Translation in H4 Neuroglioblastoma Cells. [Related pubchem assays: 1827 (Project Summary), 1813 (Primary HTS)]; type: functional
[5] = inhibitors of SNCA 5'UTR-driven reporter translation, confirmation, H4 neuroglioma cells, luminescence (AID 1988); type: functional, cell-based
[6] = target: Estrogen receptor (Homo sapiens, UniProt P03372);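 note: potency for inhibiting coactivator peptide recruitment to the receptor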
[7] = target: T1, Estrogen receptor beta (Homo sapiens, UniProt Q92731);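 note: recombinant ER-beta bound to coactivator SRC1 peptide in presence of estradiol agonist; inhibitors block coactivator peptide binding and lower the FRET signal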
[8] = target: T1, Estrogen receptor beta; experiment: ERβ–SRC-3 coactivator interaction inhibitors, confirmation, orthogonal assay, biochemical, ELISA, streptavidin-HRP readout (AID 1060)
[9] = inhibitors of intracellular T. cruzi replication, confirmation, NIH3T3 host cells, beta-gal luminescence (AID 2044); type: functional, cell-based;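 note: intracellular parasites grown in NIH/3T3 mouse fibroblasts as host cells; luminescent beta-galactosidase reporter signal from transgenic T. cruzi replicating inside host cells; inhibitors lower the luminescence signal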
[10] = target: Protein-tyrosine kinase 2-beta (Homo sapiens, UniProt Q14289);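 note: potency of inhibitors of PYK2 kinase phosphorylation of poly-GT substrate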
[11] = cytotoxicity toward NIH3T3 fibroblasts, dose response, counter-screen, cell-based, ATP luminescence, mouse fibroblasts (AID 2010); type: functional;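 note: cells exposed to compound for about 90 hours before reading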
[12] = target: 26S proteasome non-ATPase regulatory subunit 14 (Homo sapiens, UniProt O00487); experiment: inhibition of proteasome subunit RPN11 – biochemical, fluorescence polarization, uHTS hits, confirmation (AID 602368); type: functional
[13] = target: 72 kDa type IV collagenase (Homo sapiens, UniProt P08253); experiment: Dose Response validation of uHTS RPN11 inhibitor hits using a MMP-2 Fluorescence assay.; type: functional
[14] = target: Prothrombin (Bos taurus, UniProt P00735); experiment: thrombin inhibition, dose response, biochemical, fluorescence polarization, uHTS hits (AID 602369); type: functional
[15] = cells
[16] = Luminescence Cell-Based Dose Response to Identify Activators of 5'UTR Stem-Loop Driven Prion Protein mRNA Translation in H4-C Neuroglioblastoma Cells. [Related pubchem assays: 1829 (Project Summary), 1814 (Primary HTS)]; type: functional
[17] = Luminescence Cell-Based Dose Confirmation HTS to Identify Activators of 5'UTR Stem-Loop Driven Alpha-Synuclein mRNA Translation in H4 Neuroglioblastoma Cells. [Related pubchem assays: 1829 (Project Summary), 1814 (Primary HTS)]; type: functional
[18] = Luminescence Cell-Based Dose Response HTS to Identify Activators of Luciferase Translation or Activity in H4 […] Cells. [Related pubchem assays: 1829 (Project Summary), 1814 (Primary HTS)]; type: functional
[19] = system: H4; experiment: Luminescence Cell-Based Dose Response HTS to Identify Activators of 5'UTR Stem-Loop Driven Prion Protein mRNA Translation in H4 Neuroglioblastoma Cells. [Related pubchem assays: 1829 (Project Summary), 1814 (Primary HTS)]; type: functional; conditions: Homo sapiens
[20] = Luminescence Cell-Based Dose Response to Identify Activators of Luciferase Translation or Activity in H4-C Neuroglioblastoma Cells. [Related pubchem assays: 1829 (Project Summary), 1814 (Primary HTS)]; type: functional
[21] = Luminescence Cell-Based Dose Confirmation to Identify Activators of 5'UTR Stem-Loop Driven Alpha-Synuclein mRNA Translation in H4 Neuroglioblastoma Cells. [Related pubchem assays: 1829 (Project Summary), 1814 (Primary HTS)]; type: functional
[22] = system: BJ; experiment: cytotoxicity toward BJ-TERT fibroblasts, dose response, cell-based, RAS-independent, luminescence (AID 1933); type: functional; conditions: Homo sapiens
[23] = system: BJ; experiment: cells; type: functional, cell-based; conditions: Homo sapiens
[24] = microbe, parasite or virus in culture; type: functional; conditions: Mycobacterium tuberculosis
[25] = system: BJ; experiment: cytotoxicity toward BJ-TERT-LT-ST fibroblasts, dose response, cell-based, RAS-independent, luminescence (AID 1935); type: functional; conditions: Homo sapiens;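 note: BJ fibroblasts immortalized with TERT plus LT and ST oncogenes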
[26] = cytotoxicity toward DRD oncogenic fibroblasts, dose response, cell-based, non-viral oncogenic, luminescence (AID 1934); type: functional; conditions: Homo sapiens
[27] = THP-1 cell cytotoxicity, dose response, cytotoxicity control for non-replicating M. tuberculosis project (AID 489025); type: functional
[28] = HepG2 cell cytotoxicity, dose response, cytotoxicity control for non-replicating M. tuberculosis project (AID 489018); type: functional; conditions: Mycobacterium tuberculosis
[29] = Vero E6 cell cytotoxicity, dose response, cytotoxicity control for non-replicating M. tuberculosis project, secondary assay (AID 492998); type: functional, VeroE6; conditions: Vero C1008
[30] = target: T2, Microphthalmia-associated transcription factor (Homo sapiens, UniProt O75030); experiment: TRPM1 promoter luciferase signal decrease, dose response, MITF inhibitor project, cell-based, SK-MEL-5, cherry-picked, set 3 (AID 493073); type: functional
T2 sequence (O75030 whole entry): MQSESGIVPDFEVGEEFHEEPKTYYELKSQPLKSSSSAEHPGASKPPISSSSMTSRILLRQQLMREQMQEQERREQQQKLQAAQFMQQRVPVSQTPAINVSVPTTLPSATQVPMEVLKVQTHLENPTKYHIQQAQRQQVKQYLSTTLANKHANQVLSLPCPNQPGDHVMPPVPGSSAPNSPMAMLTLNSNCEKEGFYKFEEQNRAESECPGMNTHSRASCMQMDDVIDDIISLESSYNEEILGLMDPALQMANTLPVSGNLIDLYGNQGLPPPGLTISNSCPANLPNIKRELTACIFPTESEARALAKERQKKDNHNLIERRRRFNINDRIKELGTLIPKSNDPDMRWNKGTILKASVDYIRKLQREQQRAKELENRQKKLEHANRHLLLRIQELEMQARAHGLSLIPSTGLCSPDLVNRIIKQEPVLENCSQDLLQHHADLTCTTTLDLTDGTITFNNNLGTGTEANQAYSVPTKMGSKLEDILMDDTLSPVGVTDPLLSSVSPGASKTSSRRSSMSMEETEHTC

[31] = system: INS1; experiment: beta cell apoptosis inhibitors, cytokine rescue, dose response, luminescence, retest (AID 449756); type: functional, cell-based; conditions: Rattus norvegicus;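 note: cell death triggered by IL-1 beta plus TNF-alpha plus IFN-gamma mixture; protective hits raise ATP signal compared with cytokine alone wells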

T1 sequence (Q92731 whole entry): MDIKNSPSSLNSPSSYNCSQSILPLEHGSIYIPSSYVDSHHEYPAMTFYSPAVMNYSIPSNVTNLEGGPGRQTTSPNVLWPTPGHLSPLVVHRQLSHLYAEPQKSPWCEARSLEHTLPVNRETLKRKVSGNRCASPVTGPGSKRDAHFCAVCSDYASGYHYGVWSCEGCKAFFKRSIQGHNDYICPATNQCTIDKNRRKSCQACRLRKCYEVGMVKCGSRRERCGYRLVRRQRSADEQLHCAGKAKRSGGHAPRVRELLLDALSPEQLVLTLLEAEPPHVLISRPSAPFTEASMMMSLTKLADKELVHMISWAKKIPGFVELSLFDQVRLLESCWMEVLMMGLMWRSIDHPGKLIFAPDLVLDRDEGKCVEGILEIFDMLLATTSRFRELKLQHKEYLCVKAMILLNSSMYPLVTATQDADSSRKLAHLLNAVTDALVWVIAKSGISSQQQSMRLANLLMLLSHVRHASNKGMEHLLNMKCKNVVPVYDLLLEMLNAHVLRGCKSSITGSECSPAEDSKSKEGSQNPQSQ
Protein-tyrosine kinase 2-beta, sequence (Q14289 whole entry): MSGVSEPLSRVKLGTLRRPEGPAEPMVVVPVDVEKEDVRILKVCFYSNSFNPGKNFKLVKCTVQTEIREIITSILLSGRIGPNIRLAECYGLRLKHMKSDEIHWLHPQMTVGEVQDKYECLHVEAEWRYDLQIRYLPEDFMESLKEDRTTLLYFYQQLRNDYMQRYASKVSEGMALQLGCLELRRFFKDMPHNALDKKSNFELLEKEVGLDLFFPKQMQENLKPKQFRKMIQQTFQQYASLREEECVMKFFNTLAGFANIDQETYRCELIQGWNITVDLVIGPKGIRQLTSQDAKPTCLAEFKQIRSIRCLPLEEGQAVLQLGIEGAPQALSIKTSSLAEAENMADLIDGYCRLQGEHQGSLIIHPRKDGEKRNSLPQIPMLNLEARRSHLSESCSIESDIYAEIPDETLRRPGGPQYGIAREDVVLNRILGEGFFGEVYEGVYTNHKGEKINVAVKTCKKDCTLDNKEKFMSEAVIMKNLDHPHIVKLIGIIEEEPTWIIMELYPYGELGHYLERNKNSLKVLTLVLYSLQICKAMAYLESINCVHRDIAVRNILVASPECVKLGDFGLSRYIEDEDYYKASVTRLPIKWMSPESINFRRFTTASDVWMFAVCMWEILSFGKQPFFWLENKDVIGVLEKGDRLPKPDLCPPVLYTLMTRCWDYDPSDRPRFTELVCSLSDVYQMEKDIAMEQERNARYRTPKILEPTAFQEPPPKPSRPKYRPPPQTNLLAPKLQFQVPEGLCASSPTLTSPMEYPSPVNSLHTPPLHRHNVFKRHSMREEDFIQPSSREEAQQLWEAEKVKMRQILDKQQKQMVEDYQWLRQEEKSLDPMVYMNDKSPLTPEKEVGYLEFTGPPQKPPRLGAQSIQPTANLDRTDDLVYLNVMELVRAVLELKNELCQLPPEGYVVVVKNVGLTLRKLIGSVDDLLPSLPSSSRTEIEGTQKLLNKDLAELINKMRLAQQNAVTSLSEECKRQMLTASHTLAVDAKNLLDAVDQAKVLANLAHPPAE
Estrogen receptor, sequence (P03372 whole entry): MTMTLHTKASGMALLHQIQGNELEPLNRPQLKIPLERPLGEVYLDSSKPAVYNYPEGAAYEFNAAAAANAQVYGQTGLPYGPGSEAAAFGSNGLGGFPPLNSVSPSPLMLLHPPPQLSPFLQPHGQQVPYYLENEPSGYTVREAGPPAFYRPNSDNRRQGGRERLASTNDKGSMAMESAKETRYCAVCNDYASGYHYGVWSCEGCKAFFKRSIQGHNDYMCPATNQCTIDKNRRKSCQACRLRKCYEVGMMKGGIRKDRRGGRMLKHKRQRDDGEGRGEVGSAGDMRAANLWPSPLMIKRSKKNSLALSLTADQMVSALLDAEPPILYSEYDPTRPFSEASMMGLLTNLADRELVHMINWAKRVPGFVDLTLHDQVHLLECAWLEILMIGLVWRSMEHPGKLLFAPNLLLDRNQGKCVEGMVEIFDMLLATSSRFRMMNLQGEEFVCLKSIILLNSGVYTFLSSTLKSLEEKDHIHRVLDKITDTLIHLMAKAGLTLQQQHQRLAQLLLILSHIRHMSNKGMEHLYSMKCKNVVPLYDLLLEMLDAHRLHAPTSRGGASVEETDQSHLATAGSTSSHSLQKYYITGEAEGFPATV
26S proteasome non-ATPase regulatory subunit 14, sequence (O00487 whole entry): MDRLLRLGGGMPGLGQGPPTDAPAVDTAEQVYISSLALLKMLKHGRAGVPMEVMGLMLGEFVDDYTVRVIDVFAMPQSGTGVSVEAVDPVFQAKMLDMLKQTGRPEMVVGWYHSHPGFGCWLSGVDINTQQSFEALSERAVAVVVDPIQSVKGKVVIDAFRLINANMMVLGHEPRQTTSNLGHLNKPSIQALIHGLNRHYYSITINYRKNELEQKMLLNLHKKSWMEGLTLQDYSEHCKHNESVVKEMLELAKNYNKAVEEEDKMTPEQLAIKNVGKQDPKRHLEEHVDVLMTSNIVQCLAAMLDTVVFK
Luciferin 4-monooxygenase, sequence (P08659 whole entry): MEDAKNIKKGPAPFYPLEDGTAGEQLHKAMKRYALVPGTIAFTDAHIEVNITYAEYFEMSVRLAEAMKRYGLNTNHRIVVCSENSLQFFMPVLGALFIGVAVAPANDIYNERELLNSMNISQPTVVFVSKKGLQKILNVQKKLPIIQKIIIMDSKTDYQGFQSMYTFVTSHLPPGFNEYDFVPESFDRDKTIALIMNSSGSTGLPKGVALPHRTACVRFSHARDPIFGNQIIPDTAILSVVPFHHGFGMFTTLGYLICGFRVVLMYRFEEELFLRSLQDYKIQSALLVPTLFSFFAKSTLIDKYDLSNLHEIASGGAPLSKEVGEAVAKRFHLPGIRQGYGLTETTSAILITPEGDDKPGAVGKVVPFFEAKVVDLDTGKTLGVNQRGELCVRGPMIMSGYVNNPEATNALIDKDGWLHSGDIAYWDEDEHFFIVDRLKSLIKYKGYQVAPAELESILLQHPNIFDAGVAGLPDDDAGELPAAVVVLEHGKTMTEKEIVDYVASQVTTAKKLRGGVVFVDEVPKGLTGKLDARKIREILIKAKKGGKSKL
NS3, sequence (A3EZJ3 whole entry): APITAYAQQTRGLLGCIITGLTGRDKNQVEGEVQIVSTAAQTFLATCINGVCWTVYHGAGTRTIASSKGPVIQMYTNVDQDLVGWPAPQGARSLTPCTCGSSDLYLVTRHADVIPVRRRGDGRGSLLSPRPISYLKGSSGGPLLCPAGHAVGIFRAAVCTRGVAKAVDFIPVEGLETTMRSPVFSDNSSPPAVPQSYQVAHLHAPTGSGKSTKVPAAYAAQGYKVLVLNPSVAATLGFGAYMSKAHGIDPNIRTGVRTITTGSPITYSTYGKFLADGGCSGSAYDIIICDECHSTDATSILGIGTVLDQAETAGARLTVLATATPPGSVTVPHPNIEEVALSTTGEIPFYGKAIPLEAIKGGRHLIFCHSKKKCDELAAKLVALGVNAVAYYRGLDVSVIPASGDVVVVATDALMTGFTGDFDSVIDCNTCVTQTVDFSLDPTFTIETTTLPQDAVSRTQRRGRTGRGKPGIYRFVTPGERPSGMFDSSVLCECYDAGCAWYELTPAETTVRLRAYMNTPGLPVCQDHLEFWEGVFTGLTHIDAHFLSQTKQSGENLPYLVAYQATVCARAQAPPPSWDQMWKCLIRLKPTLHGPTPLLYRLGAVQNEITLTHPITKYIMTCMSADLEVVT
72 kDa type IV collagenase, sequence (P08253 whole entry): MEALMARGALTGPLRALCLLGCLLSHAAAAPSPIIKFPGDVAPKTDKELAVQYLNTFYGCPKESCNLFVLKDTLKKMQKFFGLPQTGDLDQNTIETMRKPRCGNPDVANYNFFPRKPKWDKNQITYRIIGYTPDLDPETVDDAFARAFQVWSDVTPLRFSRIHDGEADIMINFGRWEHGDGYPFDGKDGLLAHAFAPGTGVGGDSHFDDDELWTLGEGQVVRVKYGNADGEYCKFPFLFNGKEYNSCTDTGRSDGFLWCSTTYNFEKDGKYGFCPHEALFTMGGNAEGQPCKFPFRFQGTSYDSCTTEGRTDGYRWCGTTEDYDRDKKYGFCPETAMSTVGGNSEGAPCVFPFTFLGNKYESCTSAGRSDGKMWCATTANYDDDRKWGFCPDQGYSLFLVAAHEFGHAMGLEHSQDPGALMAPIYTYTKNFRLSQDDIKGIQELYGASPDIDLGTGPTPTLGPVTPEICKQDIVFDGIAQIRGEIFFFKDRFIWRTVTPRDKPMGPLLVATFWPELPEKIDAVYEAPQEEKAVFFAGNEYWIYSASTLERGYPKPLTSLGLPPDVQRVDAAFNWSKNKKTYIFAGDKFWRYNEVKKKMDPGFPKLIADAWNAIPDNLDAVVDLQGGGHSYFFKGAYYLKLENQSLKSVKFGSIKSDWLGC

CCc1cc2c(=O)n(Cc3ccco3)c(SCc3c(C)noc3C)nc2s1
EC50 [1]: 0.34 µM (active)
IC50 [2]: 25.6 µM (not active)
EC50 [3]: 15.3 µM (active)

CCCNC(=O)c1ccc(-c2nc3ccccc3s2)s1
EC50 [4]: 10.7 µM (inconclusive)
EC50 [5]: 7.23 µM (active)
IC50 [6]: 30.3 µM (not active)
IC50 [7]: > 50 µM (not active)
IC50 [8]: 102 µM (not active)

COC(=O)c1[nH]c2ccc(C)cc2c1NC(=O)CN1CCCc2ccccc21
EC50 [9]: < 0.1 µM (active)
IC50 [7]: < 1.56 µM (active)
IC50 [8]: 1.03 µM (not active)
IC50 [10]: 15.2 µM (not active)
EC50 [11]: > 60 µM (not active)
IC50 [12]: 16.7 µM (active)
IC50 [13]: > 100 µM (inactive)
IC50 [14]: > 100 µM (inactive)
EC50 [15]: 0.639 µM (active)

Cc1nc2ccc(NC(=O)c3ccc(Cl)s3)cc2s1
EC50 [16]: 0.443 µM (active)
EC50 [17]: < 0.1 µM (active)
EC50 [18]: < 0.1 µM (active)
EC50 [19]: 12.5 µM (active)
EC50 [20]: 0.491 µM (active)
EC50 [21]: 0.363 µM (active)

COc1cc(C2Nc3ccc4ncccc4c3C3=C2C(=O)CCC3)cc(OC)c1O (stereo not drawn)
IC50 [10]: 12.7 µM (not active)

CCOc1ccc(OCc2ccc(C(=O)N/N=C(\C)c3ccccn3)cc2)cc1
EC50 [22]: 0.75 µM (active)
EC50 [23]: 1.25 µM (active)
CC50 [24]: 4.15 µM (active)
EC50 [25]: 3.92 µM (inconclusive)
EC50 [26]: 25.4 µM (inconclusive)
CC50 [27]: 1.37 µM (active)
CC50 [28]: 5.83 µM (active)
CC50 [29]: 3.37 µM (active)
AC50 [30]: 3.64 µM (active)
AC50 [31]: 0.712 µM (active)

COc1ccc(C2C(=O)c3ccccc3C2=O)c(OC)c1
EC50 [16]: > 12 µM (not active)
EC50 [18]: < 0.1 µM (inconclusive)
EC50 [20]: > 12 µM (not active)
EC50 [21]: 0.104 µM (inconclusive)
